From ChEMBL document CHEMBL4219227, “Polyprenylated polycyclic acylphloroglucinol: Angiogenesis inhibitor from Garcinia multiflora” (Bioorg Med Chem Lett, 2018) come the findings set out here.

Format in all cases: functional
For test [1], the species on record is Homo sapiens. The test is described as follows: Antiangiogenic activity in human CD34-positive EPC assessed as suppression of capillary-like structure formation at 20 uM after 24 hrs by phase contrast microscopic method.
For the next test, the system named is SK-HEP1. Put plainly: Growth inhibition of human SKHEP1 cells after 48 hrs by SRB assay. To be noted: SK-HEP1, 48 h. (Sulforhodamine B stains cellular protein and so reports cell mass.)
The species named for test [2] is Homo sapiens. Put plainly: Growth inhibition of human CD34-positive EPC at 10 uM after 48 hrs by SRB assay.
Test [3] is filed under the species Homo sapiens. The test is described as follows: Antiangiogenic activity in human CD34-positive EPC assessed as suppression of cell reorganization at 20 uM after 24 hrs by phase contrast microscopic method.
Test [4] can be described thus: Antiangiogenic activity in human CD34-positive EPC assessed as suppression of capillary-like structure formation after 24 hrs by phase contrast microscopic method.
The next test concerns PC-3. The test is described as follows: Growth inhibition of human PC3 cells after 48 hrs by SRB assay. To be noted: PC-3, 48 h.

Calls of active or inactive are those of the source. No cut-off for these calls is given here. Bounds are passed on as bounds.

For orientation: GI50 means the concentration giving 50% growth inhibition. The IC50 is the concentration that inhibits the measured activity by half. For `C=C(C)[C@@H](CC=C(C)C)C[C@]12C[C@@H](CC=C(C)C)C(C)(C)[C@](CC=C(C)C)(C1=O)C(O)=C(C(=O)c1ccccc1)C2=O`, the outcome in the test listed under Homo sapiens [1] and in the test listed under Homo sapiens [3] was Active. In addition, the GI50 was 4.3 µM in the test with SK-HEP1 and 6.6 µM in the test with PC-3. Moreover, in the test listed under Homo sapiens [2], the “growth inhibition (GI)” value is “Active”. In addition, the IC50 in test [4] is 14.3 µM.
In the case of `CC(C)=CCC1=C2OC(C)(C)[C@@H](CC=C(C)C)C[C@@]23C[C@@H](CC=C(C)C)C(C)(C)[C@@](C(=O)c2ccccc2)(C1=O)C3=O` [GARCIMULTIFLORONE A], the outcome in the test filed under Homo sapiens [1] and in the test listed under Homo sapiens [3] was Active. For the same compound, the GI50 is above 30 µM in the test with SK-HEP1 and 24.8 µM in the test on PC-3. Further, in the test listed under Homo sapiens [2], the “growth inhibition (GI)” value was “Active”. Further, in test [4], the half-maximal inhibitory concentration (IC50) turned out to be 16.5 µM.
`C=C(C)[C@@H](CC=C(C)C)C[C@@]12C[C@@H](CC=C(C)C)C(C)(C)[C@]3(C=CC(C)(C)OC3=C(C(=O)c3ccccc3)C1=O)C2=O` [GARCIMULTIFLORONE B]: the outcome in the test filed under Homo sapiens [1] and in the test listed under Homo sapiens [3] was Active. Further, the GI50 in the test with SK-HEP1 is above 30 µM; in the test on PC-3 it was 18.2 µM. The “growth inhibition (GI)” value in the test filed under Homo sapiens [2] was “Active”. Besides, the 50% inhibitory concentration (IC50) in test [4] worked out at 15.7 µM.
For the compound `CC(=O)O[C@H]1C(=O)[C@@]2(C)[C@H]([C@H](OC(=O)c3ccccc3)[C@]3(O)C[C@H](OC(=O)[C@H](O)[C@@H](NC(=O)c4ccccc4)c4ccccc4)C(C)=C1C3(C)C)[C@]1(OC(C)=O)CO[C@@H]1C[C@@H]2O` [PACLITAXEL], the GI50 is 0.011 µM in the test with SK-HEP1 and 0.013 µM in the test with PC-3.
